The values that follow come from patent US10736908B2, “Antiviral aryl-amide phosphodiamide compounds” (Merck Sharp & Dohme Corp., priority 2016, dated 2020).

Molecules are shown by their SMILES. Read-outs that look alike come from different tables or passages of the source.

What is called IC50 is the concentration at which inhibition is half-maximal.

The experiment concerns HIV-1 (H9/IIIB strain). The experiment in a line: Multiple round HIV-1 infection assay (Viking assay) in MT4-GFP cells. Particulars: HIV-1 replication in MT4-GFP cells. In kind it is cell-based. As to the method:
Assessing Antiviral Potency in a Multiple Round HIV-1 Infection Assay (Viking Assay)
The antiviral activity of the tenofovir prodrugs of the Examples herein was assessed in an assay that measures the rate of replication of HIV in cell culture, termed the Viking assay (VIral KINetics in Green cells) and performed as follows. HIV-1 replication was monitored using MT4-gag-GFP clone D3 (hereafter designated MT4-GFP), which are MT-4 cells modified to harbor a GFP reporter gene, the expression of which is dependent on the HIV-1 expressed proteins tat and rev. Productive infection of an MT4-GFP cell with HIV-1 results in GFP expression approximately 24 h post-infection. MT4-GFP cells were maintained at 37° C./5% CO2/90% relative humidity in RPMI 1640 supplemented with 10% fetal bovine serum, 100 U/ml penicillin/streptomycin, and 400 μg/ml G418 to maintain the reporter gene. For infections, MT4-GFP cells were placed in the same medium lacking G418 and infected overnight with HIV-1 (H9/IIIB strain) virus at an approximate multiplicity of infection of 0.01 in the same incubation conditions. […] Compound plates were prepared by dispensing compounds dissolved in DMSO into wells of 384 well poly-D-lysine-coated plates (0.2 μl/well) using an ECHO acoustic dispenser. Each compound was tested in a 10-point serial 3-fold dilution (typical final concentrations: 8.4 μM-0.42 nM). Controls included no inhibitor (DMSO only) and a combination of three antiviral agents (efavirenz, indinavir, an in-house integrase strand transfer inhibitor at final concentrations of 4 μM each). Cells were added (50 μL/well) to compound plates and the infected cells were maintained at 37° C./5% CO2/90% relative humidity.
Infected cells were quantified at two time points, ˜48 h and ˜72 h post-infection, by counting the number of green cells in each well using an Acumen eX3 scanner. The increase in the number of green cells over ˜24 h period gives the reproductive ratio, R0, which is typically 5-15 and has been shown experimentally to be in logarithmic phase (data not shown). Inhibition of R0 is calculated for each well, and IC50s determined by non-linear 4-parameter curve fitting.

Where [1] appears, read: 50% NHS (normal human serum), read-out: Viking, IC50 (50% NHS).
[2] abbreviates: head prints 100% NHS (normal human serum), read-out: Viking, IC50 (100% NHS).
The mark [3] stands for this setting: Human immunodeficiency virus 1, IIIB, 50% NHS (normal human serum), read-out: Viking, IC50 (50% NHS).
The mark [4] stands for this setting: Human immunodeficiency virus 1, IIIB, head prints 100% NHS (normal human serum), read-out: Viking, IC50 (100% NHS).

With `CCOCCOC(=O)C(C)(C)NP(=O)(CO[C@H](C)Cn1cnc2c(N)ncnc21)NC(=O)c1ccccc1Cl` (single isomer, unassigned) [Example 12B], the IC50 runs as follows: under setting [1], 83.4 nM; under setting [2], 26.7 nM.
On to `CCOC(=O)C(C)(C)NP(=O)(CO[C@H](C)Cn1cnc2c(N)ncnc21)NC(=O)c1ccc(C(C)(C)C)cc1` (single isomer, unassigned) [Example 22A], for which the IC50 was 48.1 nM under setting [1] and 15.1 nM under setting [2].
Regarding `CCCOC(=O)C(C)(C)NP(=O)(CO[C@H](C)Cn1cnc2c(N)ncnc21)NC(=O)c1ccc(OC)cc1` (stereo partly drawn) [Example 2B, propyl 2-(((R)—((((R)-1-(6-amino-9H-purin-9-yl)propan-2-yl)oxy)methyl)(4-methoxy-benzamido)phosphoryl)amino)-2-methylpropanoate and propyl 2-(((S)—((((R)-1-(6-amino-9H-purin-9-yl)propan-2-yl)oxy)methyl(4-methoxybenzamido)phosphoryl)amino)-2-methylpropanoate], the half-inhibitory concentration (IC50) was determined as 69.8 nM under setting [3] and 27.5 nM under setting [4].
Take `COc1ccc(C(=O)NP(=O)(CO[C@H](C)Cn2cnc3c(N)ncnc32)NC(C)(C)C(=O)OC(C)C)cc1` (single isomer, unassigned) [Example 17A]: the half-maximal inhibitory concentration (IC50) under setting [1] was determined as 54.3 nM and the IC50 under setting [2] was 18.3 nM.
For `C[C@H](Cn1cnc2c(N)ncnc21)OCP(=O)(NC(=O)c1ccc(Cl)cc1)NC(C)(C)C(=O)OC1CCC1` (single isomer, unassigned) [Example 6A], in that order: 36.9 nM and 11.1 nM.
As for `CC(C)COC(=O)C(C)(C)NP(=O)(CO[C@H](C)Cn1cnc2c(N)ncnc21)NC(=O)c1ccc(Cl)cc1` (single isomer, unassigned) [Example 5A], the IC50 was 79.8 nM under setting [1] and 12.3 nM under setting [2].
For `C[C@H](Cn1cnc2c(N)ncnc21)OCP(=O)(NC(=O)c1ccc(Cl)cc1)NC(C)(C)C(=O)OC1CCOCC1` (single isomer, unassigned) [Example 9A], in that order: 1440 nM and 404 nM.
For `CC(C)OC(=O)C(C)(C)NP(=O)(CO[C@H](C)Cn1cnc2c(N)ncnc21)NC(=O)c1ccncn1` (single isomer, unassigned) [Example 13A], in that order: 2130 nM and 854 nM.
Take `C[C@H](Cn1cnc2c(N)ncnc21)OCP(=O)(NC(=O)c1ccc(Cl)cc1)NC(C)(C)C(=O)OC1CCCC1` (single isomer, unassigned) [Example 7B]: the IC50 runs as follows: under setting [1], 13.5 nM; under setting [2], 1.92 nM.
For the compound `CCCCCOC(=O)C(C)(C)NP(=O)(CO[C@H](C)Cn1cnc2c(N)ncnc21)NC(=O)c1ccccc1OC` (single isomer, unassigned) [Example 16B], the IC50 turned out to be 139 nM under setting [1] and 15.5 nM under setting [2].
Turning to `CC(C)OC(=O)C(C)(C)NP(=O)(CO[C@H](C)Cn1cnc2c(N)ncnc21)NC(=O)c1ccc(Cl)cc1` (mixture of isomers) [Example 1A, isopropyl 2-(((R)—((((R)-1-(6-amino-9H-purin-9-yl)propan-2-yl)oxy)methyl)(4-chlorobenzamido)phosphoryl)amino)-2-methylpropanoate and isopropyl 2-(((S)—((((R)-1-(6-amino-9H-purin-9-yl)propan-2-yl)oxy)methyl)(4-chlorobenzamido)phosphoryl)amino)-2-methylpropanoate], the IC50 under setting [3] turned out to be 286 nM and the IC50 under setting [4] amounted to 82.4 nM.
The corresponding values for `CC(C)OC(=O)C(C)(C)NP(=O)(CO[C@H](C)Cn1cnc2c(N)ncnc21)NC(=S)c1ccc(Cl)cc1` (stereo partly drawn) [Example 20, isopropyl 2-((((((R)-1-(6-amino-9H-purin-9-yl)propan-2-yl)oxy)methyl)(4-chlorophenylthioamido)phosphoryl)amino)-2-methylpropanoate] are 494 nM and 118 nM.
`CCOC(=O)C(C)(C)NP(=O)(CO[C@H](C)Cn1cnc2c(N)ncnc21)NC(=O)c1ccc(C(C)(C)C)cc1` (single isomer, unassigned) [Example 22B]: the half-maximal inhibitory concentration (IC50) is 15.7 nM under setting [1] and 5.8 nM under setting [2].
Regarding `CC(C)OC(=O)C(C)(C)NP(=O)(CO[C@H](C)Cn1cnc2c(N)ncnc21)NC(=O)c1cnccn1` (single isomer, unassigned) [Example 14B], the 50% inhibitory concentration (IC50) under setting [1] is 314 nM and the IC50 under setting [2] was found to be 112 nM.
For `CCOCCOC(=O)C(C)(C)NP(=O)(CO[C@H](C)Cn1cnc2c(N)ncnc21)NC(=O)c1ccc(Cl)cc1` (single isomer, unassigned) [Example 8B], the IC50 reads like this: under setting [1], 62.2 nM; under setting [2], 41.1 nM.
In the case of `CCCOC(=O)C(C)(C)NP(=O)(CO[C@H](C)Cn1cnc2c(N)ncnc21)NC(=O)c1ccc(Cl)cc1` (single isomer, unassigned) [Example 4A], the IC50 runs as follows: under setting [1], 57.9 nM; under setting [2], 12 nM.
`CCOCCOC(=O)C(C)(C)NP(=O)(CO[C@H](C)Cn1cnc2c(N)ncnc21)NC(=O)c1ccccc1Cl` (single isomer, unassigned) [Example 12A]: the IC50 was determined as 90.6 nM under setting [3] and 30.9 nM under setting [4].
For `CCCOC(=O)C(C)(C)NP(=O)(CO[C@H](C)Cn1cnc2c(N)ncnc21)NC(=O)c1ccccc1Cl` (single isomer, unassigned) [Example 21B], in that order: 229 nM and 33.6 nM.
Take `CCCCCOC(=O)C(C)(C)NP(=O)(CO[C@H](C)Cn1cnc2c(N)ncnc21)NC(=O)c1ccc(F)cc1` (single isomer, unassigned) [Example 11B]: the IC50 by setting is: under setting [1], 30.8 nM; under setting [2], 5.7 nM.
Turning to `COc1ccc(C(=O)NP(=O)(CO[C@H](C)Cn2cnc3c(N)ncnc32)NC(C)(C)C(=O)OC(C)C)cc1` (single isomer, unassigned) [Example 17B], the 50% inhibitory concentration (IC50) came to 390 nM under setting [1] and 157 nM under setting [2].
The corresponding values for `CC(C)OC(=O)C(C)(C)NP(=O)(CO[C@H](C)Cn1cnc2c(N)ncnc21)NC(=O)c1cnccn1` (single isomer, unassigned) [Example 14A] are 1570 nM and 284 nM.
On to `CCCCCOC(=O)C(C)(C)NP(=O)(CO[C@H](C)Cn1cnc2c(N)ncnc21)NC(=O)c1ccccc1OC` (single isomer, unassigned) [Example 16A], for which the IC50 is, setting by setting: under setting [3], 153 nM; under setting [4], 13.3 nM.
As for `CCOCCOC(=O)C(C)(C)NP(=O)(CO[C@H](C)Cn1cnc2c(N)ncnc21)NC(=O)c1ccc(Cl)cc1` (single isomer, unassigned) [Example 8A], the IC50 amounted to 133 nM under setting [1] and 63.9 nM under setting [4].
On to `CC(C)OC(=O)C(C)(C)NP(=O)(CO[C@H](C)Cn1cnc2c(N)ncnc21)NC(=O)c1ccc(F)cc1` (single isomer, unassigned) [Example 10A], for which the IC50 is, setting by setting: under setting [1], 264 nM; under setting [2], 129 nM.
The corresponding values for `CC(C)OC(=O)C(C)(C)NP(=O)(CO[C@H](C)Cn1cnc2c(N)ncnc21)NC(=O)c1ccncn1` (single isomer, unassigned) [Example 13B] are 480 nM and 164 nM.
The corresponding values for `CC(C)COC(=O)C(C)(C)NP(=O)(CO[C@H](C)Cn1cnc2c(N)ncnc21)NC(=O)c1ccc(Cl)cc1` (single isomer, unassigned) [Example 5B] are 24.4 nM and 1.9 nM.
